Experiments:
[1] = test system: isolated rat aorta constricted with methoxamine; test: Vasodilation effects on isolated aorta of rats (methoxamine-constricted rings); conditions: isolated rat aorta constricted with methoxamine (3 μM); 50% relaxation
From the text: Male Sprague-Dawly rats (350-450 g, obtained from the Experimental Animal Team of the Korea Research Institute of Chemical Technology) were knocked unconscious by hitting the occipital region, sacrificed by cervical dislocation, and underwent thoracotomy. After being quickly removed, the thoracic aorta was deprived of the adipose tissue and cut into aortic rings of 3 mm width. The aorta was lightly rubbed with cotton club soaked in a modified Krebs Henseleit buffer (Physiological Salt Solution, PSS) to remove the inner epithelial layer therefrom.
Thereafter, 3×10^−6 M methoxamine was applied to induce an intensive constriction in the vascular smooth muscle. When the vasoconstriction induced by the methoxamine was reached and maintained to a maximum, test compounds and controls were cumulatively added to the organ baths in concentrations of 1, 3, 10 and 30 μM so as to examine the vasodilation effect.
The change rate of constriction by the addition of the drugs compared to the maximal constriction induced by methoxamine was calculated to plot a concentration-relaxation response curve.

[2] = test system: ischemic myocardium damage model of anesthetized rats; test: Cardioprotective activity in ischemic heart models of rats (LAD occlusion/reperfusion, anesthetized rats); type: in vivo, rat; conditions: rat, in vivo, iv, 0.3 mg/kg
Method: After trachetomy, the rats were rendered to respire artificially at a rate of 60/min with a stroke volume of 10 ml/kg. Cannulars were inserted into the fermoral vein and the fermoral artery and used for drug administration and blood pressure measurement, respectively.
In the ischemic myocardial injury models, the body temperature has an important influence on the results. To avoid the change in the body temperature, a body temperature measuring probe was inserted into the rectum of each rat and the body temperature was constantly kept at 37° C. with the aid of a homeothermic blanket control unit.
Afterwards, during testing, a continuous measurement was made of the mean arterial blood pressures and heart rates from the rats. For the measurement of the blood pressure, a pressure transducer, such as that manufactured by Grass Ins., MA, U.S.A., identified as Model Statham P23XL, was used.
The heart rate was measured by a tachometer, such as that manufactured by Gould Inc., Ohio, U.S.A., identified as Biotachometer. In addition, all of the changes occurring were continuously recorded through the Gould 2000 chart recorder, manufactured by Gould Inc.
The left coronary artery was occluded according to the Selye H. method as follows. The rats underwent a left thoracotomy operation for partial opening of the chest and the right-side chest was pressurized by the middle finger of the left hand to push the heart out. Immediately after the left anterior descending coronary artery hereinafter referred to as (LAD) was carefully stitched using a suture needle with 5-0 silk ligature, the heart was then repositioned in the thoracic cavity while both ends of the ligature were situated outside. The opposite ligature ends were passed through a PE tube (PE100, 2.5 cm) and allowed to stand loose for 20 min for stabilization. Via the cannula inserted into the femoral vein, vehicles or drugs were administered into the rats which were rendered to stand for 30 min in order to sufficiently elicit the efficacies of the drugs.
Next, the PE tube which had the doubled strands of the ligature passed therethrough was pushed toward the heart and then, set upright by tightly pulling end regions of the ligature with a hemostatic pincette while pressing the coronary artery.
After the reocclusion of the coronary artery in accordance with the above procedure, the rats were administered with 2 ml of a 1% Evans blue through an intravenous route. Subsequently, an excess of pentobarbital was intravenously injected to kill the rats, after which the heat was removed and then, deprived of the right ventricle and both atria. The left ventricle was cut horizontally to the heart apex into 5 or 6 slices which were weighed. From the surface of each slice, images were input with the aid of a Hi-scope into a computer installed with an image analyzing program (Image Pro Plus). From the images input into the computer, the area of the normal blood stream tissue region which appeared blue in a computer monitor and the area which appeared colorless were measured. The percentage of the colorless area to the total area of each slice was calculated and multiplied by the weight of each slice to determine the area at risk (AAR) of each slice. The AAR obtained from each slice was summed for all slices and the total AAR was divided by the total weight of the left ventricle to yield % AAR, as shown in the following mathematical formula 1:
AAR(%)=(summed AAR for all slices)/(total weight of left ventricle)×100 [Mathematical Formula 1]
During this fixation, 2,3,5-triphenyltetrazolium chloride was reduced into formazan dye by the myocardial dehydrogenase and its cofactor NADH, so that the normal regions of the tissue were colored brick-red. In contrast, the infarct zones of the tissue were deficient in the dehydrogenase and its cofactor, so that no reduction occurred on the 2,3,5-triphenyltetrazolium, allowing the color to remain unchanged.

[3] = test system: cerebral cortical neurons; test: Protective activity for neuronal cells against iron-induced damage (LDH release); type: cell-based, rat; conditions: 30 μM compound, 50 uM FeSO4, 24 hours, LDH reduction rate vs control
Method: From the brains of 17-18 day-old rat embryos, cerebral cortical neurons were isolated and then, cultured at 37° C. for 7-9 days in a 5% CO2 incubator. The cortical cell cultures were washed twice with a minimum essential medium (MEM) to reduce the serum concentration to 0.2% and pre-treated for 30 min with 30 μM of each of test compounds. For the experiments, the test compounds were dissolved in DMSO and diluted in a medium. At this time, the final concentration of DMSO was not allowed to exceed 0.2%. For a control group, only vehicle was applied.
After the pre-treatment with test compounds or vehicle, FeSO4 was added to a final concentration of 50 uM, and the cultures were maintained for 24 hours in a CO2 incubator. During incubation, lactate dehydrogenase (LDH) was released into the medium upon neuronal death by the oxidative toxicity of iron. The extent of neuronal damage was assessed by measuring the amount of LDH released into the media. The protective effect of the compounds of interest on neurons was evaluated by calculating the LDH reduction rate of treatment group compared with that of the control group.

isolated rat hearts = test: Cardioprotective activity in isolated ischemic heart models of rats (Langendorff, global ischemia/reperfusion); conditions: for EDP (MmHg) / LDVP × HR (%) / TTC: 10 μM; for EDP (MmHg): left ventricular end-diastolic pressure after 30 min reperfusion; for LDVP × HR (%): reperfusion double product as % of pretreatment DP, 30 min global ischemia, 30 min reperfusion; for TTC: time to contracture during global ischemia
Method: Male Sprague-Dawley rats weighing 300-450 g were anesthetized with sodium pentobarbital (100 mg/kg, i.p.). The tail vein was injected with heparin (1,000 U/kg) and then the trachea was intubated. […] A latex balloon filled with solvent (ethanol: water=1:1 (v/v)) and attached to a metal cannula was placed in the left ventricle through pulmonary vein and connected to a Isotec pressure transducer (H.S.E., Germany) for measurement of left ventricular pressure (LVP). […] Then, baseline contractile function, heart rate (HR), and coronary flow (CF) (extracorporeal electromagnetic flow probe, Narco Bio-System, U.S.A.) were measured. Cardiac contractile function was calculated by subtracting LVEDP from LV peak systolic pressure (LVSP), yielding developed pressure (LVDP). Double product (DP), another important parameter for assessing cardiac performance, was calculated by multiplying HR by LVDP. Throughout the experiment, all these parameters were measured, and calculated before and 10 min after pretreatment with each compound and 30 min after the onset of reperfusion with buffer. Data on reperfusion DP were further expressed as the percentage to pretreatment DP.
We then rendered the hearts globally ischemic by completely shutting off the perfusate for 30 min. Severity of ischemia was determined as the time to contracture (TTC, min) during global ischemia in which the first 5 mmHg increase in EDP was observed. Then, the hearts were reperfused and, 30 min later, contractile function (LVDP, DP) and cumulative reperfusion lactate dehydrogenase (LDH) release were measured. LDH was measured as a sensitive index for loss of cell viability with a kit supplied by Boerhinger Mannheim based on the technique of Wroblewski and LaDue [F. Wroblewski and JS.

rat brain homogenate = test: Inhibitory activity against iron-induced lipid peroxidation (MDA quantification); type: biochemical; conditions: 100 μM compound, 400 μM FeCl2, 37° C., 30 min, MDA reduction rate vs control
Method: The rat brain was homogenized in a Krebs buffer (15 mM HEPES, 10 mM glucose, 140 mM NaCl, 3.6 mM KCl, 1.5 mM CaCl2, 1.4 mM KH2PO4, 0.7 mM MgCl2, pH 7.4) and the supernatant separated by centrifugation at 12,000 rpm for 10 min was used for further experiments. FeCl2 was added to a final concentration of 400 μM in the brain homogenate which was then allowed to stand at 37° C. for 30 min for the facilitation of oxidation. Each of the test compounds was added at a concentration of 100 μM and vehicle was used as a control.
Iron facilitates the oxidation of the brain homogenate to produce malondialdehyde (MDA), a lipid peroxidation product. Thus, the lipid peroxidation was determined by MDA quantification. The inhibitory effect of the test compounds against the lipid peroxidation was evaluated by calculating MDA reduction rate of the test compounds compared with that of the control group.
Typically, the MDA quantification is achieved by reacting samples with 2-thiobarbituric acid (TBA) and measuring the absorbance at 530 nm. However, this method is unsuitable to treat samples on a large scale because of a boiling step. Thus, in this experiment, N-methyl-2-phenylindole was used instead of TBA. […] Bioxytech^R LPO-586 Kit was used for MDA quantification.

Question: Which results are given for `CCOC(=O)[C@@H]1Cc2cc(Cl)ccc2N1[C@H]1c2cc([N+](=O)[O-])ccc2O[C@](C)(C(OC)OC)[C@@H]1O` [Example 20, 1-[(2S, 3R, 4S)-3,4-dihydro-2-dimethoxymethyl-3-hydroxy-2-methyl-6-nitro-2H-1-benzopyran-4-yl]-(2S)-2,3-dihydro-1H-5-chloroindole-2-carboxylic acid ethyl ester]?
Answer: IC50 [1]: > 30 µM; AAR/LV (%) [2]: 35.4%; IZ/AAR (%) [2]: 35.1%; % Protection [3]: 69%

Question: What does the source list for `CCOC(=O)[C@@H]1Cc2cc(OC)ccc2N1[C@@H]1c2cc([N+](=O)[O-])ccc2O[C@@](C)(C(OC)OC)[C@H]1O` [Example 35, 1-[(2R, 3S, 4R)-3,4-dihydro-2-dimethoxymethyl-3-hydroxy-2-methyl-6-nitro-2H-1-benzopyran-4-yl]-(2S)-2,3-dihydro-1H-5-methoxyindole-2-carboxylic acid ethyl ester]?
Answer: IC50 [1]: > 30 µM; LDH (U/g) (isolated rat hearts): 23.2 U/g; EDP (MmHg) (isolated rat hearts): 19 MmHg; LDVP × HR (%) (isolated rat hearts): 57.3%; TTC (isolated rat hearts): 25.1 min; AAR/LV (%) [2]: 31.6%; IZ/AAR (%) [2]: 37.8%

Question: With `CCOC(=O)[C@H]1Cc2cc(OC)ccc2N1[C@@H]1c2cc([N+](=O)[O-])ccc2O[C@@](C)(C(OC)OC)[C@H]1O` [Example 36, 1-[(2R, 3S, 4R)-3,4-dihydro-2-dimethoxymethyl-3-hydroxy-2-methyl-6-nitro-2H-1-benzopyran-4-yl]-(2R)-2,3-dihydro-1H-5-methoxyindole-2-carboxylic acid ethyl ester] as the molecule, how does the IC50 [1] read?
Answer: Its IC50 is over 30 µM.

Question: What about the “LDH (U/g)” value (isolated rat hearts) of the same molecule?
Answer: Its value is 18.9 U/g.

Question: And the “EDP (MmHg)” value (isolated rat hearts)?
Answer: The value was 23.3 MmHg.

Question: And the “LDVP × HR (%)” value (isolated rat hearts)?
Answer: Its value is 53.1%.

Question: What about the “TTC” value (isolated rat hearts) of the same molecule?
Answer: Its value is 24.7 min.

Question: And the “AAR/LV (%)” value [2]?
Answer: Its value is 37.5%.

Question: What about the “IZ/AAR (%)” value [2] of the same molecule?
Answer: The value was 41.4%.

Question: What does the source list for `CCOC(=O)[C@H]1Cc2ccccc2N1[C@H]1c2cc(N)ccc2O[C@](C)(C(OC)OC)[C@@H]1O` [Example 42, 1-[(2S, 3R, 4S)-6-amino-3,4-dihydro-2-dimethoxymethyl-3-hydroxy-2-methyl-2H-1-benzopyran-4-yl]-(2R)-2,3-dihydro-1H-indole-2-carboxylic acid ethyl ester]?
Answer: % Protection [3]: 100%; % Inhibition (rat brain homogenate; listed as EX. 42): 90%

Question: How did the “% Protection” value [3] turn out when `CCOC(=O)[C@@H]1Cc2ccccc2N1[C@H]1c2cc(N)ccc2O[C@](C)(C(OC)OC)[C@@H]1O` [Example 43, 1-[(2S, 3R, 4S)-6-amino-3,4-dihydro-2-dimethoxymethyl-3-hydroxy-2-methyl-2H-1-benzopyran-4-yl]-(2S)-2,3-dihydro-1H-indole-2carboxylic acid ethyl ester] was run?
Answer: The value was 100%.

Question: And the “% Protection” value ([3]; listed as EX. 43)?
Answer: The value was 101%.

Question: And the “% Inhibition” value (rat brain homogenate; listed as EX. 43)?
Answer: Its value is 93%.

Question: How did the “% Protection” value [3] turn out when `CCOC(=O)[C@H]1Cc2ccccc2N1[C@@H]1c2cc(N)ccc2O[C@](C)(C(OC)OC)[C@H]1O` [Example 44, 1-[(2S, 3S, 4R)-6-amino-3,4-dihydro-2-dimethoxymethyl-3-hydroxy-2-methyl-2H-1-benzopyran-4-yl]-(2R)-2,3-dihydro-1H-indole-2-carboxylic acid ethyl ester] was run?
Answer: Its value is 89%.

Question: What about the “% Inhibition” value (rat brain homogenate; listed as EX. 44) of the same molecule?
Answer: Its value is 90%.

Question: `CCOC(=O)[C@@H]1Cc2ccccc2N1[C@@H]1c2cc(N)ccc2O[C@](C)(C(OC)OC)[C@H]1O` [Example 45, 1-[(2S, 3S, 4R)-6-amino-3,4-dihydro-2-dimethoxymethyl-3-hydroxy-2-methyl-2H-1-benzopyran-4-yl]-(2S)-2,3-dihydro-1H-indole-2-carboxylic acid ethyl ester] was tested. Which “% Protection” value ([3]; listed as EX. 45) did it give?
Answer: Its value is 96%.

Question: What about the “% Inhibition” value (rat brain homogenate) of the same molecule?
Answer: Its value is 81%.

Question: For `CCOC(=O)c1cc2ccccc2n1[C@H]1c2cc(N)ccc2O[C@](C)(C(OC)OC)[C@@H]1O` [Example 52, 1-[(2S, 3R, 4S)-6-amino-3,4-dihydro-2-dimethoxymethyl-3-hydroxy-2-methyl-2H-1-benzopyran-4-yl]-1H-indole-2-carboxylic acid ethyl ester], which “% Protection” value [3] is on record?
Answer: The value was 100%.

Question: What about the “% Inhibition” value (rat brain homogenate; listed as EX. 52) of the same molecule?
Answer: The value was 95%.

Question: For `CCOC(=O)c1cc2ccccc2n1[C@@H]1c2cc(N)ccc2O[C@](C)(C(OC)OC)[C@H]1O` [Example 53, 1-[(2S, 3S, 4R)-6-amino-3,4-dihydro-2-dimethoxymethyl-3-hydroxy-2-methyl-2H-1-benzopyran-4-yl]-1H-indole-2-carboxylic acid ethyl ester], which “% Protection” value ([3]; listed as EX. 53) is on record?
Answer: Its value is 94%.

Question: What about the “% Inhibition” value (rat brain homogenate; listed as EX. 53) of the same molecule?
Answer: Its value is 91%.

Source: patent publication US6413983B1, “Benzopyranyl heterocycle derivatives, process for preparation thereof, and pharmaceutical compositions containing them” (Dongbu Hannong Chemical Co. Ltd., priority 2000, dated 2002)
